Assay results published in patent US6861071B2, “Highly absorptive solid preparation” (Daiichi Pharmaceutical Co., Ltd., priority 2000, dated 2005).

Experiment: Promotion of dissolution of sitafloxacin by tartaric acid
Type: physicochemical
Source text: Accordingly, tartaric acid is preferably added in an amount of 0.1 to 1 mole, preferably 1/6 mole to 0.7 mole, more preferably 0.25 to 0.5 mole, especially about 0.5 mole to 1 mole of a quinolone compound, particularly sitafloxacin.

N[C@@H]1CN(c2c(F)cc3c(=O)c(C(=O)O)cn([C@@H]4C[C@@H]4F)c3c2Cl)CC12CC2 [sitafloxacin, (−)-7-[(7S)-7-amino-5-azaspirol[2.4]heptan-5-yl]-8-chloro-6-fluoro-1-[(1R,2S)-2-fluoro-1-cyclopropyl]-1,4-dihydro-4-oxo-3-quinolinecarboxylic acid]
Effect for promoting dissolution of sitafloxacin (0.1 time molar amount (18.3 mg) of tartaric acid together with 500 mg of sitafloxacin (as an anhydrate)): marked improving effects | Effect for promoting dissolution of sitafloxacin (0.5 time molar amount (92 mg) of tartaric acid in combination with 500 mg of sitafloxacin): effect becomes maximum
